Assay results from patent publication US20220306695A1, “COMPSTATIN ANALOGUES AND THEIR MEDICAL USES” (priority 2019, published 2022).
Positions of bridges follow the written chain, without caps; N, C: chain ends. Non-standard residues stand in square brackets, D forms with d. Residues, ends and D or L forms follow the SMILES beside them. Trp(1-Me) = Cn1cc(C[C@H](N)C(=O)O)c2ccccc21; 1Nal = N[C@@H](Cc1cccc2ccccc12)C(=O)O; Sar = CNCC(=O)O

Tests used:
[1] = system: classical complement pathway; test: In vitro haemolysis assay (inhibition of classical complement pathway); format: cell-based, human; conditions: Table 3; human serum, sensitized sheep red blood cells; read-out: IC50[nM], in vitro analysis of inhibition of hemolysis
Outline: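 Serially diluted compound (9 points) was preincubated 15 min at room temperature with diluted human serum, titrated per batch to give 70-90% maximal haemolysis, in Tris/casein buffer pH 7.4 with Mg2+/Ca2+. Antibody-sensitized sheep erythrocytes were then added for 30 min at 37° C, and the reaction was stopped with EDTA. Haemolysis was read at A405, with IC50 from 4PL fit.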

[2] = Solubility test at 10 mg/mL (visual inspection and light scattering); format: physicochemical; conditions: for Solubility, Condition 1 Acetate pH 4: 10 mg/mL compound in 100 mM acetate pH 4; for Solubility, Condition 2 Acetate pH 5: 10 mg/mL compound in 100 mM acetate pH 5; for Solubility, Condition 3 Phosphate pH 6: 10 mg/mL compound in 100 mM phosphate pH 6; for Solubility, Condition 4 Phosphate pH 7: 10 mg/mL compound in 100 mM phosphate pH 7; for Solubility, Condition 5 Phosphate pH 7.5: 10 mg/mL compound in 100 mM phosphate pH 7.5

SMILES	IC50 [1] [nM]	Solubility, Condition 1 Acetate pH 4 [2]	Solubility, Condition 2 Acetate pH 5 [2]	Solubility, Condition 3 Phosphate pH 6 [2]	Solubility, Condition 4 Phosphate pH 7 [2]	Solubility, Condition 5 Phosphate pH 7.5 [2]
CC[C@H](C)[C@H](NC(C)=O)C(=O)N[C@H]1CSSC[C@@H](C(=O)N[C@H](C(=O)NCC(=O)N[C@@H](C)C(=O)N[C@@H](CCC(=O)O)C(=O)N[C@@H](CO)C(N)=O)[C@@H](C)O)NC(=O)[C@H](CCCNC(=N)N)NC(=O)[C@H](Cc2c[nH]cn2)NC(=O)[C@H](CCC(=O)O)NC(=O)CNC(=O)[C@H](Cc2c[nH]c3ccccc23)NC(=O)[C@H](CC(=O)O)NC(=O)[C@H](CCC(N)=O)NC(=O)[C@H](Cc2cn(C)c3ccccc23)NC(=O)[C@H]([C@@H](C)CC)NC1=O [Compound 51] (Ac-ICI[Trp(1-Me)]QDWGEHRCTGAES-NH2; disulfide 2-12)	< 100	− (denotes lack of solubility at the given condition, as UV absorbance at 340 nm exceeds 0.1 AU and/or it is visibly turbid or contains particles.)	− (denotes lack of solubility at the given condition, as UV absorbance at 340 nm exceeds 0.1 AU and/or it is visibly turbid or contains particles.)	+ (denotes solubility at the given condition, as determined by UV absorbance being less than 0.1 AU at 340 nm and the sample being clear when manually inspected.)	+ (denotes solubility at the given condition, as determined by UV absorbance being less than 0.1 AU at 340 nm and the sample being clear when manually inspected.)	+ (denotes solubility at the given condition, as determined by UV absorbance being less than 0.1 AU at 340 nm and the sample being clear when manually inspected.)
CC[C@H](C)[C@@H]1NC(=O)[C@@H](NC(=O)[C@H](Cc2ccccc2)NC(=O)[C@H](CCC(=O)O)NC(C)=O)CSSC[C@@H](C(=O)N(C)CC(=O)N[C@@H](CCC(=O)O)C(=O)N[C@@H](C)C(N)=O)NC(=O)[C@H](CCCNC(=N)N)NC(=O)[C@H](Cc2c[nH]cn2)NC(=O)[C@H](CCC(=O)O)NC(=O)CNC(=O)[C@H](Cc2c[nH]c3ccccc23)NC(=O)[C@H](CC(=O)O)NC(=O)[C@H](CCC(N)=O)NC(=O)[C@H](Cc2cn(C)c3ccccc23)NC1=O [Compound 80] (Ac-EFCI[Trp(1-Me)]QDWGEHRC[Sar]EA-NH2; disulfide 3-13)	< 100	− (denotes lack of solubility at the given condition, as UV absorbance at 340 nm exceeds 0.1 AU and/or it is visibly turbid or contains particles.)	− (denotes lack of solubility at the given condition, as UV absorbance at 340 nm exceeds 0.1 AU and/or it is visibly turbid or contains particles.)	+ (denotes solubility at the given condition, as determined by UV absorbance being less than 0.1 AU at 340 nm and the sample being clear when manually inspected.)	+ (denotes solubility at the given condition, as determined by UV absorbance being less than 0.1 AU at 340 nm and the sample being clear when manually inspected.)	+ (denotes solubility at the given condition, as determined by UV absorbance being less than 0.1 AU at 340 nm and the sample being clear when manually inspected.)
CC[C@H](C)[C@@H]1NC(=O)[C@@H](NC(=O)[C@H](Cc2ccccc2)NC(=O)[C@H](C)NC(=O)[C@H](CO)NC(=O)CNC(=O)[C@H](CCC(=O)O)NC(C)=O)CSSC[C@@H](C(=O)N[C@H](C(=O)N[C@@H](CCC(=O)O)C(N)=O)[C@@H](C)O)NC(=O)[C@H](CCCNC(=N)N)NC(=O)[C@H](Cc2c[nH]cn2)NC(=O)[C@H](CCC(=O)O)NC(=O)CNC(=O)[C@H](Cc2c[nH]c3ccccc23)NC(=O)[C@H](CC(=O)O)NC(=O)[C@H](CCC(N)=O)NC(=O)[C@H](Cc2cccc3ccccc23)NC1=O [Compound 56] (Ac-EGSAFCI[1Nal]QDWGEHRCTE-NH2; disulfide 6-16)	< 100	− (denotes lack of solubility at the given condition, as UV absorbance at 340 nm exceeds 0.1 AU and/or it is visibly turbid or contains particles.)	− (denotes lack of solubility at the given condition, as UV absorbance at 340 nm exceeds 0.1 AU and/or it is visibly turbid or contains particles.)	+ (denotes solubility at the given condition, as determined by UV absorbance being less than 0.1 AU at 340 nm and the sample being clear when manually inspected.)	+ (denotes solubility at the given condition, as determined by UV absorbance being less than 0.1 AU at 340 nm and the sample being clear when manually inspected.)	+ (denotes solubility at the given condition, as determined by UV absorbance being less than 0.1 AU at 340 nm and the sample being clear when manually inspected.)
CC[C@H](C)[C@H](NC(C)=O)C(=O)N[C@H]1CSSC[C@@H](C(=O)N[C@@H](CCC(=O)O)C(N)=O)NC(=O)[C@H](CCCNC(=N)N)NC(=O)[C@H](Cc2c[nH]cn2)NC(=O)[C@H](CCC(=O)O)NC(=O)CNC(=O)[C@H](Cc2c[nH]c3ccccc23)NC(=O)[C@H](CC(=O)O)NC(=O)[C@H](CCC(N)=O)NC(=O)[C@H](Cc2c[nH]c3ccccc23)NC(=O)[C@H]([C@@H](C)CC)NC1=O [Compound 22] (Ac-ICIWQDWGEHRCE-NH2; disulfide 2-12)	< 100	+ (denotes solubility at the given condition, as determined by UV absorbance being less than 0.1 AU at 340 nm and the sample being clear when manually inspected.)	− (denotes lack of solubility at the given condition, as UV absorbance at 340 nm exceeds 0.1 AU and/or it is visibly turbid or contains particles.)	− (denotes lack of solubility at the given condition, as UV absorbance at 340 nm exceeds 0.1 AU and/or it is visibly turbid or contains particles.)	+ (denotes solubility at the given condition, as determined by UV absorbance being less than 0.1 AU at 340 nm and the sample being clear when manually inspected.)	+ (denotes solubility at the given condition, as determined by UV absorbance being less than 0.1 AU at 340 nm and the sample being clear when manually inspected.)
CC[C@H](C)[C@@H]1NC(=O)[C@@H](NC(=O)[C@H](Cc2ccccc2)NC(=O)[C@H](CCC(=O)O)NC(=O)[C@H](CO)NC(C)=O)CSSC[C@@H](C(=O)N(C)CC(=O)N[C@@H](CCC(=O)O)C(N)=O)NC(=O)[C@H](CCCNC(=N)N)NC(=O)[C@H](Cc2c[nH]cn2)NC(=O)[C@H](CCC(=O)O)NC(=O)CNC(=O)[C@H](Cc2c[nH]c3ccccc23)NC(=O)[C@H](CC(=O)O)NC(=O)[C@H](CCC(N)=O)NC(=O)[C@H](Cc2cn(C)c3ccccc23)NC1=O [Compound 78] (Ac-SEFCI[Trp(1-Me)]QDWGEHRC[Sar]E-NH2; disulfide 4-14)	< 100	− (denotes lack of solubility at the given condition, as UV absorbance at 340 nm exceeds 0.1 AU and/or it is visibly turbid or contains particles.)	− (denotes lack of solubility at the given condition, as UV absorbance at 340 nm exceeds 0.1 AU and/or it is visibly turbid or contains particles.)	+ (denotes solubility at the given condition, as determined by UV absorbance being less than 0.1 AU at 340 nm and the sample being clear when manually inspected.)	+ (denotes solubility at the given condition, as determined by UV absorbance being less than 0.1 AU at 340 nm and the sample being clear when manually inspected.)	+ (denotes solubility at the given condition, as determined by UV absorbance being less than 0.1 AU at 340 nm and the sample being clear when manually inspected.)
